Assay results from US20040006103A1, “Use of chloroquine, hydroxychloroquine and 4 amino-quinolinic derivatives to obtain a drug for the anti retroviral therapy, active towards HIV sensitive strains and towards HIV strains which are resistant to both nucleosidic and non-nucleosidic reverse transcriptase inhibitors and to proteases …” (VALPHARMA S.A., priority 2002, published 2004).
Where two headings read alike, the source gives them in different places.

Key:
[1] = test system: HIV-1 clinical isolated, characterised by mutations on the protease gene inducing geno-phenotypic resistance to NFV; test: p24 production susceptibility test, Table 10, H-9 cells; assay type: cell-based; settings: for S.I. HCQ / Fen. HCQ (fold): H-9; for S.I. HCQ: I.C.50/E.C.50; for Fen. HCQ (fold): ratio to HIV-IIIB; for EC50: Human immunodeficiency virus 1, H9, H-9, read-out: E.C.50 HCQ
Excerpt: (§1) For the phenotype of the nucleosidic, non-nucleosidic and proteases inhibitors was utilised a method which consider the use of human PBMC and the protocol standardised by the AIDS Clinical Trials Group, after verifying the genotype by sequence analysis.
(§2) In order to assay in vitro the susceptibility to chloroquine and hydroxychloroquine of the viral strains, it was used the protocol of the ACTG which is characterised by the measure, of the production of antigen p24 in strongly infected cells.
(§3) The susceptibility of the viral strains to chemotherapics was determined in cell cultures, prepared in 96 wells microplates, using, for the infection, 0.1 MOI.
(§4) The supernatant of the infected cultures (either in absence or in presence of different concentrations of chemotherapic) were tested for the production of p24 after 7 days, using an ELISA test which is commercially available.
(§5) The concentrations of chloroquine and hydroxychloroquine tested ranged from 0.5 to 15 uM. At the same time non-infected cells were incubated with concentrations of chloroquine and hydroxychloroquine ranging from 0 to 50 uM to evaluate the toxicity of the compound.
(§6) After 4 day from the infection, half the cellular medium was replaced with a medium containing the corresponding dilution of chloroquine and hydroxychloroquine. The percentage of inhibition of the HIV replication, induced by chloroquine and hydroxychloroquine, was determined, after 7 day from the infection, comparing the levels of p24 of this cultures and that of the control, infected and not treated with chloroquine and hydroxychloroquine.
(§7) Therefore, the E.C.50 of chloroquine and hydroxychloroquine expresses the concentration of chemotherapic that inhibits the 50% of production of p24 and the values were calculated using linear and non linear regression analysis (the significativity for the non linear regression was R^2>0.95).
(§8) In the same experimental conditions and in the same day, but with similar concentrations of chloroquine and hydroxychloroquine, it was evaluated the vitality of the infect cell cultures, and this was expressed as I.C.50.
(§9) I.C.50 (Inhibitory Concentration) indicates the concentration of the chemotherapic agent inhibiting the vitality of the cell cultures at a rate of 50%, when there is not infection.

[2] = test system: HIV-1 clinical isolated, characterised by mutations on the protease gene inducing geno-phenotypic resistance to NFV; test: p24 production susceptibility test (ACTG protocol), Table 10, PBMC; assay type: cell-based; settings: for S.I. HCQ: I.C.50/E.C.50; for Fen. HCQ (fold): ratio to HIV-IIIB; for EC50: Human immunodeficiency virus 1, PBMC, read-out: E.C.50 HCQ
Excerpt: as §1, §2, §3, §4, §5, §6, §7, §8, §9

[3] = test system: HIV-1 clinical isolated, characterised by mutations in the protease gene inducing geno-phenotypic resistance to SQV; test: p24 production susceptibility test (ACTG protocol), Table 8; assay type: cell-based; settings: for EC50: Human immunodeficiency virus 1, PBMC, read-out: E.C.50 HCQ; for S.I. HCQ / Fen. HCQ (fold): PBMC; for S.I. HCQ: I.C.50/E.C.50; for Fen. HCQ (fold): ratio to HIV-IIIB
Excerpt: as §1, §2, §3, §4, §5, §6, §7, §8, §9

[4] = test system: HIV-1 strains cultivated in PBMC and isolated from patient naive to the treatment; test: p24 production susceptibility test (ACTG protocol), Table 11; assay type: cell-based; settings: for EC50: Human immunodeficiency virus 1, PBMC; for S.I. HCQ: I.C.50/E.C.50
Experimental: as §2, §3, §4, §5, §6, §7, §8, §9

[5] = test system: HIV-1 strains geno-phenotypically resistant to NVP; test: p24 production susceptibility test, Table 6, MT-2 cells; assay type: cell-based; settings: for EC50: Human immunodeficiency virus 1, MT2, MT-2, read-out: E.C.50 HCQ; for S.I. HCQ / Fen. HCQ (fold): MT-2; for S.I. HCQ: I.C.50/E.C.50; for Fen. HCQ (fold): ratio to HIV-IIIB
Excerpt: as §1, §2, §3, §4, §5, §6, §7, §8, §9

[6] = test system: HIV-1 clinical isolated, characterised by mutations in the RT gene inducing geno-phenotypic resistance to 3TC; test: p24 production susceptibility test (ACTG protocol), Table 3; assay type: cell-based; settings: for EC50: Human immunodeficiency virus 1, PBMC, read-out: E.C.50 HCQ; for S.I. HCQ / Fen. HCQ (fold): PBMC; for S.I. HCQ: I.C.50/E.C.50; for Fen. HCQ (fold): ratio to HIV-IIIB
Excerpt: as §1, §2, §3, §4
At the same time non-infected cells were incubated with concentrations of chloroquine and hydroxychloroquine ranging from 0 to 50 uM to evaluate the toxicity of the compound.
as §6, §7, §8, §9

[7] = test system: HIV clinical isolated, characterised by mutations in the RT gene inducing geno-phenotypic resistance to ddI; test: p24 production susceptibility test (ACTG protocol), Table 2; assay type: cell-based, HIV-1; settings: for EC50: Human immunodeficiency virus 1, PBMC, read-out: E.C.50 HCQ; for S.I. HCQ / Fen HCQ (fold): PBMC; for S.I. HCQ: I.C.50/E.C.50; for Fen HCQ (fold): ratio to HIV-IIIB
Excerpt: as §1, §2, §3, §4, §5, §6, §7, §8, §9

[8] = Gen. M4IL E44D D67N M184V R211K T215Y
[9] = Gen. M41L D67N V118I M184V T215Y
[10] = Gen M4IL M184V L210W R211KL 214F T215Y

SMILES: CCN(CCO)CCCC(C)Nc1ccnc2cc(Cl)ccc12 (centres unmarked) [HCQ, hydroxychloroquine]
- S.I. HCQ ([1]; Gen. D30N): 4.4
- Fen. HCQ (fold) ([1]; Gen. D30N): 1.2X fold
- S.I. HCQ ([1]; Gen. V82A): 5.5
- Fen. HCQ (fold) ([1]; Gen. V82A): 1.3X fold
- EC50 ([1]; Gen. D30N): 2200 nM
- EC50 ([1]; Gen. V82A): 2500 nM
- S.I. HCQ ([2]; Gen. D30N A71V): 4
- Fen. HCQ (fold) ([2]; Gen. D30N A71V): 1.2X fold
- S.I. HCQ ([2]; Gen. D30N M46V A71V): 5.5
- Fen. HCQ (fold) ([2]; Gen. D30N M46V A71V): 1X fold
- S.I. HCQ ([2]; Gen. G48V V92A): 3.3
- Fen. HCQ (fold) ([2]; Gen. G48V V92A): 1.6X fold
- S.I. HCQ ([2]; Gen. V82F L90M): 3.6
- Fen. HCQ (fold) ([2]; Gen. V82F L90M): 1.3X fold
- EC50 ([2]; Gen. D30N A71V): 2200 nM
- EC50 ([2]; Gen. D30N M46V A71V): 1800 nM
- EC50 ([2]; Gen. G48V V92A): 3000 nM
- EC50 ([2]; Gen. V82F L90M): 2500 nM
- EC50 ([3]; Gen. G48V I84V A74V L90M): 1500 nM
- EC50 ([3]; Gen. G48V V82A): 3000 nM
- EC50 ([3]; Gen. I84V L90M): 2800 nM
- EC50 ([3]; Gen. M46I G48V L63P L90M): 1800 nM
- EC50 ([3]; Gen. V82A L90M): 1800 nM
- S.I. HCQ ([3]; Gen. G48V I84V A74V L90M): 4
- Fen. HCQ (fold) ([3]; Gen. G48V I84V A74V L90M): 0.8X fold
- S.I. HCQ ([3]; Gen. G48V V82A): 3
- Fen. HCQ (fold) ([3]; Gen. G48V V82A): 1.6X fold
- S.I. HCQ ([3]; Gen. I84V L90M): 3
- Fen. HCQ (fold) ([3]; Gen. I84V L90M): 1.5X fold
- S.I. HCQ ([3]; Gen. M46I G48V L63P L90M): 6
- Fen. HCQ (fold) ([3]; Gen. M46I G48V L63P L90M): 1X fold
- S.I. HCQ ([3]; Gen. V82A L90M): 5.5
- Fen. HCQ (fold) ([3]; Gen. V82A L90M): 1X fold
- EC50 ([4]; HIV-1 virus sensitive to the anti-retroviral treatment, range over each experiment, read-out: E.C.50): 1500 to 3500 nM
- EC50 ([4]; PBMC, Virus N°1, read-out: E.C.50 HCQ): 2200 nM
- EC50 ([4]; PBMC, Virus N°2, read-out: E.C.50 HCQ): 1800 nM
- EC50 ([4]; PBMC, Virus N°3, read-out: E.C.50 HCQ): 1500 nM
- EC50 ([4]; PBMC, Virus N°4, read-out: E.C.50 HCQ): 2200 nM
- EC50 ([4]; PBMC, Virus N°5, read-out: E.C.50 HCQ): 1800 nM
- S.I. HCQ ([4]; PBMC, Virus N°1): 4.5
- S.I. HCQ ([4]; PBMC, Virus N°2): 5
- S.I. HCQ ([4]; PBMC, Virus N°3): 6
- S.I. HCQ ([4]; PBMC, Virus N°4): 4
- S.I. HCQ ([4]; PBMC, Virus N°5): 4.5
- EC50 ([5]; Gen. G190E): 3.5 µM
- EC50 ([5]; Gen. K103N): 2.8 µM
- EC50 ([5]; Gen. V106A): 3.2 µM
- EC50 ([5]; Gen. Y181C): 3.2 µM
- S.I. HCQ ([5]; Gen. G190E): 6
- Fen. HCQ (fold) ([5]; Gen. G190E): 1.9X fold
- S.I. HCQ ([5]; Gen. K103N): 7.8
- Fen. HCQ (fold) ([5]; Gen. K103N): 1.5X fold
- S.I. HCQ ([5]; Gen. V106A): 6.2
- Fen. HCQ (fold) ([5]; Gen. V106A): 1.7X fold
- S.I. HCQ ([5]; Gen. Y181C): 6.1
- Fen. HCQ (fold) ([5]; Gen. Y181C): 1.7X fold
- EC50 [6, 8]: 2500 nM
- EC50 [6, 9]: 3200 nM
- EC50 ([6]; Gen. M184I): 2800 nM
- EC50 ([6]; Gen. M184V): 3000 nM
- S.I. HCQ [6, 8]: 3.5
- Fen. HCQ (fold) [6, 8]: 1.5X fold
- S.I. HCQ [6, 9]: 3.3
- Fen. HCQ (fold) [6, 9]: 1.7X fold
- S.I. HCQ ([6]; Gen. M184I): 3.4
- Fen. HCQ (fold) ([6]; Gen. M184I): 1.2X fold
- S.I. HCQ ([6]; Gen. M184V): 3.2
- Fen. HCQ (fold) ([6]; Gen. M184V): 1.3X fold
- EC50 ([7]; Gen D67N K70R M184V T215Y): 2500 nM
- EC50 ([7]; Gen D67N K70R T215F K70R): 2500 nM
- EC50 ([7]; Gen K70R T215F K219Q): 2000 nM
- EC50 [7, 10]: 2500 nM
- EC50 ([7]; Gen M41I T215F): 2500 nM
- EC50 ([7]; Gen M41L D67N K70R M184V T215Y): 2500 nM
- EC50 ([7]; Gen M41L D67N K70R T215Y): 2800 nM
- S.I. HCQ ([7]; Gen D67N K70R M184V T215Y): 4.5
- Fen HCQ (fold) ([7]; Gen D67N K70R M184V T215Y): 1.3X fold
- S.I. HCQ ([7]; Gen D67N K70R T215F K70R): 3.4
- Fen HCQ (fold) ([7]; Gen D67N K70R T215F K70R): 1.1X fold
- S.I. HCQ ([7]; Gen K70R T215F K219Q): 5
- Fen HCQ (fold) ([7]; Gen K70R T215F K219Q): 0.8X fold
- S.I. HCQ [7, 10]: 4
- Fen HCQ (fold) [7, 10]: 1.3X fold
- S.I. HCQ ([7]; Gen M41I T215F): 4.5
- Fen HCQ (fold) ([7]; Gen M41I T215F): 1.3X fold
- S.I. HCQ ([7]; Gen M41L D67N K70R M184V T215Y): 3.6
- Fen HCQ (fold) ([7]; Gen M41L D67N K70R M184V T215Y): 1.3X fold
- S.I. HCQ ([7]; Gen M41L D67N K70R T215Y): 3.4
- Fen HCQ (fold) ([7]; Gen M41L D67N K70R T215Y): 1.1X fold
